# US8158088B2, “Extractant compositions for co-extracting cesium and strontium, a method of separating cesium and strontium from an aqueous feed, and calixarene compounds” (Battelle Energy Alliance, LLC, priority 2008, dated 2012)
# Tests used:
# Type in all cases: physicochemical
# [1] = Solvent stability: strontium distribution ratios as a function of contact time with 1.5 M HNO3
# Procedure: (§1) The stability of the mixed extractant solvents prepared using dialkyloxycalix[4]arenebenzocrown-6 compounds (MC-8, MC-8B, MC-10, MC-10B, MC-12, or MC-12B) relative to BOBCalixC6 in the FPEX I process solvent was determined. Samples were prepared using each of the dialkyloxycalix[4]arenebenzocrown-6 compounds and contacted with 1.5 M HNO3. The samples included 0.007 M of the respective dialkyloxycalix[4]arenebenzo-crown-6 compound (MC-8, MC-8B, MC-10, MC-10B, MC-12, or MC-12B), 0.075 M DtBuCH18C6, 0.75 M Cs-7SB modifier, and 0.003 M TOA in ISOPAR® L. The stability of the dialkyloxycalix[4]arene-benzocrown-6 based solvents was evaluated by measuring the cesium and strontium distribution ratios as a function of contact time. These cesium and strontium distribution ratios for the mixed extractant solvents are presented in Table 9 and Table 10, respectively, along with the cesium and strontium distribution ratios for the FPEX I process solvent. The symbol “-” is used in Tables 9 and 10 to indicate no data was collected.
# (§2) This degradation is likely due to chemical attack or nitration of the BOBCalixC6 in the FPEX I process solvent. […] However, it is difficult to compare the relative extents of degradation. In order to compare the different extractants, the distribution ratio data presented in Tables 9 and 10 were normalized to the values obtained at t=0 days contact. The normalized cesium and strontium distribution ratios for the FPEX I process solvent and the mixed extractant solvents as a function of contact time are presented in FIGS. 2 and 3, respectively.
# [2] = Third phase formation on contact with nitric acid
# [3] = Cesium distribution ratio (DCs), equilibrium batch contact of mixed extractant solvent with nitric acid feed; settings: for Cesium distribution ratio, contact E1: first forward extraction, 1.5 M HNO3 feed simulant, 0.075 M DtBuCH18C6, 0.75 M Cs-7SB, 0.003 M TOA in ISOPAR L; for Cesium distribution ratio, contact E1 / Cesium distribution ratio, contact E2 / Cesium distribution ratio, contact E3: 25 °C; for Cesium distribution ratio, contact St1: first strip with 0.01 M HNO3, 35 °C; for Cesium distribution ratio, contact St1 / Cesium distribution ratio, contact E2 / Cesium distribution ratio, contact St2 / Cesium distribution ratio, contact E3: 0.007 M calixarene solvent; for Cesium distribution ratio, contact E2: second forward extraction; for Cesium distribution ratio, contact St2: second strip with 0.01 M HNO3, 35 °C; for Cesium distribution ratio, contact E3: third forward extraction
# Source text: The distribution of cesium and strontium between the first organic phase (the mixed extractant solvent including the dialkyloxycalix[4]arenebenzocrown-6 compound) and the first aqueous phase (aqueous feed) may be determined by conventional techniques. The distribution ratio for strontium (“DSr”) may be calculated as the ratio of organic phase activity to the aqueous phase activity at equilibrium. High values for the DSr indicate that the strontium is present predominantly in the organic phase while low values for the DSr indicate that the strontium is present predominantly in the aqueous phase. Similarly, the distribution ratio for cesium (“DCs”) may be calculated as the ratio of organic phase activity to the aqueous phase activity at equilibrium. High values for the DCs indicate that the cesium is present predominantly in the organic phase while low values for the DCs indicate that the cesium is present predominantly in the aqueous phase.
# Distribution ratios (DM=[M]org/[M]aq) were measured by equilibrium batch contacts between the organic and aqueous phases at an organic-to-aqueous phase ratio (O/A) of unity (O/A=1). All distribution ratio measurements were conducted in a temperature controlled water bath at 25±1° C. The aqueous phase was of the appropriate HNO3 concentration, to which trace quantities (typically, less than 10^−7 M each) of the major radionuclides of interest (^137Cs, ^85Sr, ^154Eu, or ^241Am) were added. The organic and aqueous phases were contacted by vortex mixing for 1 minute. All batch contact experiments were performed at ambient temperature (from approximately 20° C. to approximately 25° C.) unless otherwise noted. Following extraction, the samples were centrifuged for 1 minute and the organic and aqueous phases separated by pipet or centrifugation. The distribution ratios (DSr, or DCs) were calculated as the ratio of the appropriate specific activities in the organic and aqueous phases as determined by γ-ray counting (gamma spectroscopy). The counting time was selected to provide less than approximately 1% statistical uncertainty.
# (MC-8, MC-8B, MC-10, MC-10B, MC-12, or MC-12B), 0.075 M DtBuCH18C6, 0.75 M Cs-7SB modifier, and 0.003 M TOA in ISOPAR® L were evaluated for their respective abilities to simultaneously extract cesium and strontium from the aqueous feed simulant composition described in Table 2. The cesium and strontium distribution ratios of the mixed extraction solvents were compared to those of the FPEX I process solvent. The cesium extraction performance and strontium extraction performance of each of the mixed extractant solvents was determined using the batch contact flowsheet presented in FIG. 1, where “E1,” “E2,” and “E3” refer to three forward extraction acts: a first extraction act, a second extraction act, and a third extraction act, respectively, and “St1” and “St2” refer to two backward extraction acts: a first strip act and a second strip act, respectively. […] The aqueous feed 2 and the mixed extractant solvent 4 were combined in a vessel 6 to conduct the extraction. Two phases were formed during the extraction: the first organic phase and the first aqueous phase, with the cesium and strontium substantially distributed in the first organic phase.
# The cesium and strontium distribution ratios for the mixed extractant solvents 4 were calculated for the first organic phase and are reported in Tables 3 and 4, respectively, as E1, along with the cesium and strontium distribution ratios for the FPEX I process solvent. The cesium and strontium were stripped from the first (and subsequent) organic phase to recover these radionuclides. For the strips or backward extractions, the first (and subsequent) organic phase was contacted with dilute acidic solution 8, which was 0.01 M HNO3. […]
# [4] = Strontium distribution ratio (DSr), equilibrium batch contact of mixed extractant solvent with nitric acid feed; settings: for Strontium distribution ratio, contact E1: first forward extraction, 1.5 M HNO3 feed simulant, 0.007 M calixarene, 0.075 M DtBuCH18C6, 0.75 M Cs-7SB, 0.003 M TOA in ISOPAR L; for Strontium distribution ratio, contact E1 / Strontium distribution ratio, contact E2 / Strontium distribution ratio, contact E3: 25 °C; for Strontium distribution ratio, contact St1: first strip with 0.01 M HNO3, 35 °C; for Strontium distribution ratio, contact St1 / Strontium distribution ratio, contact E2 / Strontium distribution ratio, contact St2 / Strontium distribution ratio, contact E3: 0.007 M calixarene solvent; for Strontium distribution ratio, contact E2: second forward extraction; for Strontium distribution ratio, contact E2 / Strontium distribution ratio, contact E3: 1.5 M HNO3 feed; for Strontium distribution ratio, contact St2: second strip with 0.01 M HNO3, 35 °C; for Strontium distribution ratio, contact E3: third forward extraction
# [5] = Solvent stability: cesium distribution ratios as a function of contact time with 1.5 M HNO3
# Procedure: as §1, §2
# [6] = contact time 0 days with 1.5 M HNO3, 0.007 M calixarene, 0.075 M DtBuCH18C6, 0.75 M Cs-7SB, 0.003 M TOA in ISOPAR L
# [7] = contact time 34 days with 1.5 M HNO3
# [8] = contact time 70 days with 1.5 M HNO3
# [9] = contact time 278 days with 1.5 M HNO3
# [10] = contact time 36 days with 1.5 M HNO3
# [11] = contact time 244 days with 1.5 M HNO3
compound,measurement,setting,value
"4′,4′,(5′)-di-(t-butyldicyclohexano)-18-crown-6 [DtBuCH18C6, reference compound]","stability (normalized strontium distribution ratios, FIG. 3)",[1]; prolonged contact with HNO3,subject to degradation following prolonged contact with HNO3
"CC(C)(C)CC(C)(C)c1ccc2c(c1)OCCOCCOc1c3cccc1Cc1cccc4c1OCCOCCOc1cc(C(C)(C)CC(C)(C)C)ccc1OCCOCCOc1c(cccc1C3)Cc1cccc(c1OCCOCCO2)C4 [BOBCalixC6, calix[4]arene-bis(tert-octylbenzo)-crown-6, reference compound]",third phase formation,"[2]; 5 M HNO3, 0.025 M BOBCalixC6, 0.075 DtBuCH18C6, 0.003 M TOA, 0.75 M EXXAL 12 in ISOPAR L",Third phase formation was observed
"CCC(C)c1ccc(OCC(O)COCC(F)(F)C(F)F)cc1 (centres unmarked) [Cs-7SB, 1-(2,2,3,3-tetrafluoropropoxy)-3-(4-sec-butylphenoxy)-2-propanol, reference compound]",nitric acid concentration above which a third phase forms,[2]; mixed extractant solvent with Cs-7SB as modifier added to aqueous feed,> 1.5 M
"CCCCC(CC)COc1c2cccc1Cc1cccc3c1OCCOCCOc1ccccc1OCCOCCOc1c(cccc1Cc1cccc(c1OC[C@H](CC)CCCC)C3)C2 (some centres unmarked) [MC-8B, 1,3-alternate-25,27-di(2-ethylhexyl-1-oxy)calix[4]arenebenzocrown-6]","cesium distribution ratios, comparison in words","[3]; 0.007 M calixarene, 1.5 M HNO3 feed",lowest distribution ratios
same,"Cesium distribution ratio, contact E1",[3]; 0.007 M calixarene,1.4
same,"Cesium distribution ratio, contact St1",[3],0.2
same,"Cesium distribution ratio, contact E2",[3]; 1.5 M HNO3 feed,1.1
same,"Cesium distribution ratio, contact St2",[3],0.1
same,"Cesium distribution ratio, contact E3",[3]; 1.5 M HNO3 feed,1.0
same,"Strontium distribution ratio, contact E1",[4],8.9
same,"Strontium distribution ratio, contact St1",[4],0.06
same,"Strontium distribution ratio, contact E2",[4],8.3
same,"Strontium distribution ratio, contact St2",[4],0.01
same,"Strontium distribution ratio, contact E3",[4],8.1
same,Cesium distribution ratio as a function of contact time,[5]; [6],1.36
same,Cesium distribution ratio as a function of contact time,[5]; [7],0.8
same,Cesium distribution ratio as a function of contact time,[5]; [8],1.5
same,Cesium distribution ratio as a function of contact time,[5]; [9],2.8
same,"stability toward hydrolytic degradation (normalized cesium distribution ratios, FIG. 2)",[5]; prolonged contact with 1.5 M HNO3,most resistant toward hydrolytic degradation
same,Strontium distribution ratio as a function of contact time,[1]; [6],8.9
same,Strontium distribution ratio as a function of contact time,[1]; [7],7.2
same,Strontium distribution ratio as a function of contact time,[1]; [8],9.3
same,Strontium distribution ratio as a function of contact time,[1]; [9],7.6
"CCCCCCCCCCOc1c2cccc1Cc1cccc3c1OCCOCCOc1ccccc1OCCOCCOc1c(cccc1Cc1cccc(c1OCCCCCCCCCC)C3)C2 [MC-10, 1,3-alternate-25,27-di(decyloxy)calix[4]arenebenzocrown-6]","Cesium distribution ratio, contact E1",[3]; 0.007 M calixarene,3.7
same,"Cesium distribution ratio, contact St1",[3],0.5
same,"Cesium distribution ratio, contact E2",[3]; 1.5 M HNO3 feed,2.0
same,"Cesium distribution ratio, contact St2",[3],0.2
same,"Cesium distribution ratio, contact E3",[3]; 1.5 M HNO3 feed,1.6
same,"Strontium distribution ratio, contact E1",[4],9.5
same,"Strontium distribution ratio, contact St1",[4],0.06
same,"Strontium distribution ratio, contact E2",[4],8.4
same,"Strontium distribution ratio, contact St2",[4],0.01
same,"Strontium distribution ratio, contact E3",[4],8.3
same,Cesium distribution ratio as a function of contact time,[5]; [6],3.7
same,Cesium distribution ratio as a function of contact time,[5]; [7],3.0
same,Cesium distribution ratio as a function of contact time,[5]; [8],3.5
same,Cesium distribution ratio as a function of contact time,[5]; [9],1.1
same,Strontium distribution ratio as a function of contact time,[1]; [6],9.5
same,Strontium distribution ratio as a function of contact time,[1]; [7],7.7
same,Strontium distribution ratio as a function of contact time,[1]; [8],9.0
same,Strontium distribution ratio as a function of contact time,[1]; [9],7.7
"CCCCCCCCCCCCOc1c2cccc1Cc1cccc3c1OCCOCCOc1ccccc1OCCOCCOc1c(cccc1Cc1cccc(c1OCCCCCCCCCCCC)C3)C2 [MC-12, 1,3-alternate-25,27-di(dodecyloxy)calix[4]arenebenzocrown-6]","Cesium distribution ratio, contact E1",[3]; 0.007 M calixarene,2.9
same,"Cesium distribution ratio, contact St1",[3],0.4
same,"Cesium distribution ratio, contact E2",[3]; 1.5 M HNO3 feed,1.7
same,"Cesium distribution ratio, contact St2",[3],0.2
same,"Cesium distribution ratio, contact E3",[3]; 1.5 M HNO3 feed,1.3
same,"Strontium distribution ratio, contact E1",[4],7.7
same,"Strontium distribution ratio, contact St1",[4],0.04
same,"Strontium distribution ratio, contact E2",[4],7.5
same,"Strontium distribution ratio, contact St2",[4],0.01
same,"Strontium distribution ratio, contact E3",[4],7.0
same,Cesium distribution ratio as a function of contact time,[5]; [6],3.0
same,Cesium distribution ratio as a function of contact time,[5]; [10],2.5
same,Cesium distribution ratio as a function of contact time,[5]; [11],2.2
same,Cesium distribution ratio as a function of contact time,[5]; [9],2.8
same,Strontium distribution ratio as a function of contact time,[1]; [6],7.5
same,Strontium distribution ratio as a function of contact time,[1]; [10],7.1
same,Strontium distribution ratio as a function of contact time,[1]; [11],6.1
"CCCCC(CCCC)CCCOc1c2cccc1Cc1cccc3c1OCCOCCOc1ccccc1OCCOCCOc1c(cccc1Cc1cccc(c1OCCCC(CCCC)CCCC)C3)C2 [MC-12B, 1,3-alternate-25,27-di(4-butyloctyl-1-oxy)calix[4]arenebenzocrown-6]","Cesium distribution ratio, contact E1",[3]; 0.007 M calixarene,2.5
same,"Cesium distribution ratio, contact St1",[3],0.4
same,"Cesium distribution ratio, contact E2",[3]; 1.5 M HNO3 feed,1.3
same,"Cesium distribution ratio, contact St2",[3],0.2
same,"Cesium distribution ratio, contact E3",[3]; 1.5 M HNO3 feed,1.1
same,"Strontium distribution ratio, contact E1",[4],7.7
same,"Strontium distribution ratio, contact St1",[4],0.03
same,"Strontium distribution ratio, contact E2",[4],6.7
same,"Strontium distribution ratio, contact St2",[4],0.02
same,"Strontium distribution ratio, contact E3",[4],6.3
same,Cesium distribution ratio as a function of contact time,[5]; [6],3.3
same,Cesium distribution ratio as a function of contact time,[5]; [10],2.1
same,Cesium distribution ratio as a function of contact time,[5]; [11],1.8
same,Strontium distribution ratio as a function of contact time,[1]; [6],6.3
same,Strontium distribution ratio as a function of contact time,[1]; [10],6.9
same,Strontium distribution ratio as a function of contact time,[1]; [11],5.7
